How the values were obtained:
CYP2C19 = CYP2C19 (Homo sapiens, UniProt P33261); experiment: biochemical
CYP1A2 = biological target: T1, CYP1A2 (Homo sapiens, UniProt P05177); experiment: biochemical
T1 sequence (P05177 1-516): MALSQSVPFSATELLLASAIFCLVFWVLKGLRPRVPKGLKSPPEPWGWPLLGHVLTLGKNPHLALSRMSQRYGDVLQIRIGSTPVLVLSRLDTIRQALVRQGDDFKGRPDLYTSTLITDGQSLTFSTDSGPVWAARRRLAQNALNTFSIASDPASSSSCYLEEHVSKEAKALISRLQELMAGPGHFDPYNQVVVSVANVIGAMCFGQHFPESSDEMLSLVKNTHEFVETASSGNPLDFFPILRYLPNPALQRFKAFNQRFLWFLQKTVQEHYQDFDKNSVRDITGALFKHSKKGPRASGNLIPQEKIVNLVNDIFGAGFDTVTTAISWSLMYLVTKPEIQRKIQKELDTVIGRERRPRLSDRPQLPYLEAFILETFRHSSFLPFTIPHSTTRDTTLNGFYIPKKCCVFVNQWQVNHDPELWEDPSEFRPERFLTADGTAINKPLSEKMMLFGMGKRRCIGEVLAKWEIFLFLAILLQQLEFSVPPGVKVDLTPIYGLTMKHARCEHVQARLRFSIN

[1] = in vivo, po, 250 mg/kg
Experimental: Twenty-four hours following the final administration mice were placed into an enclosed Plexiglas chamber and exposed to CO2 for a period of 1-2 minutes or until breathing ceased. They were then removed and blood was taken via a cardiac puncture and cervical dislocation was performed. Subjects were next placed in a supine position and a midline incision made. All organs were inspected and the livers removed by careful dissection. Liver weights were recorded as well as any gross abnormalities.

[2] = Solubility in organic solvents; assay type: physicochemical; conditions: for solubility: 25 °C, Form C, read-out: Solubility, mg/mL at 25° C.
urinary LTE4 production = experiment: Phase 1 study, urinary LTE4; assay type: in vivo, human
Experimental: Pharmacodynamics: Whole blood ionophore-stimulated leukotriene LTB4 and urinary LTE4 production are assayed by ELISA and mass spectrometry, respectively.
Obtain pre-dose fasting blood samples for hematology determinations. Obtain pre-dose fasting blood samples for serum chemistry determinations. Obtain pre-dose blood samples (5 mL EDTA and 4 mL heparinized) for baseline PK and LTB4. Collect ‘spot’ urine prior to study drug administration for baseline (pre-dose) LTE4. Administer study drug. […] Collect blood samples (2 mL heparinized) for LTB4 at 0.5, 1, 2, 3, 4, 6, 8, and 12 hours. Collect urine for LTE4 for the following separate intervals: 0-3, 3-6, 6-9, and 9-12 hours. For twice daily dosing group (if conducted): administer study drug 12 hours±30 minutes after prior dose, preceded by ≧2 hours fast.
Obtain pre-dose fasting blood samples for hematology determinations. Obtain pre-dose fasting blood samples for serum chemistry determinations. […] Collect blood samples (2 mL heparinized) for LTB4 at 24 hours after the first study drug administration; 4 mL blood will be collected at this time point in the Single Dose Phase. Collect ‘spot’ urine sample for LTE4 at 24 and 36 hours after first study drug administration.
Obtain pre-dose blood samples (5 mL EDTA and 2 mL heparinized) for PK and LTB4. Collect pre-dose urine for LTE4. Administer study drug (last dose of drug). […] Collect blood samples (2 mL heparinized) for LTB4 at 0.5, 1, 2, 3, 4, 6, 8, and 12 hours. Collect urine for LTE4 for the following separate intervals: 0-3, 3-6, 6-9, and 9-12 hours after study drug administration.
Record vital signs 24 hours after Day 11 study drug administration. […] Collect blood sample (4 mL heparinized) for LTB4 at 24 hours after Day 11 study drug administration. Collect ‘spot’ urine sample for LTE4 at 24 hours after Day 11 study drug administration.
Whole blood ionophore-stimulated leukotriene LTB4 and urinary LTE4 production were assayed by ELISA and mass spectrometry, respectively.

CYP2C9 = CYP2C9 (Homo sapiens, UniProt P11712); experiment: biochemical
in vivo [3] = conditions: male, Sprague-Dawley, rat, po
in vivo [4] = experiment: in vivo; parameters: species or system female Beagle dogs; conditions: dog
Experimental: For comparison, an IV formulation was also tested. Table 18 summarizes the results of the experiments of administration of the various oral formulations to female beagle dogs.

CYP3A4 = CYP3A4 (Homo sapiens, UniProt P08684); experiment: biochemical
pH solubility profile = assay type: physicochemical; conditions: 25 °C, thermodynamic from solid

CYP3A4, sequence (P08684 whole entry): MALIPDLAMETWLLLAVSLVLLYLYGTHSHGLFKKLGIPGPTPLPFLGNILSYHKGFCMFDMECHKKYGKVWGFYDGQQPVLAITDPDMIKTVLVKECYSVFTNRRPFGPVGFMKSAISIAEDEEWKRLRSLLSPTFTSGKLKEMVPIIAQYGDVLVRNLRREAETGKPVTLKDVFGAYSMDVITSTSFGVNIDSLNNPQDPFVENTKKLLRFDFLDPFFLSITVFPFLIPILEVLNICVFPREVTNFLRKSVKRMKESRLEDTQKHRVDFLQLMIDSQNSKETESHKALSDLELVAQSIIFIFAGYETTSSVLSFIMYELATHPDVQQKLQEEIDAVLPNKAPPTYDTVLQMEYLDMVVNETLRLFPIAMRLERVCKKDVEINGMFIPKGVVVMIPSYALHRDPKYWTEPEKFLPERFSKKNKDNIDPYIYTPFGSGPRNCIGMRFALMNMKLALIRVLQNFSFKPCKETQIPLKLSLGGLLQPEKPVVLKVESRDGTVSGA
CYP2C19, sequence (P33261 whole entry): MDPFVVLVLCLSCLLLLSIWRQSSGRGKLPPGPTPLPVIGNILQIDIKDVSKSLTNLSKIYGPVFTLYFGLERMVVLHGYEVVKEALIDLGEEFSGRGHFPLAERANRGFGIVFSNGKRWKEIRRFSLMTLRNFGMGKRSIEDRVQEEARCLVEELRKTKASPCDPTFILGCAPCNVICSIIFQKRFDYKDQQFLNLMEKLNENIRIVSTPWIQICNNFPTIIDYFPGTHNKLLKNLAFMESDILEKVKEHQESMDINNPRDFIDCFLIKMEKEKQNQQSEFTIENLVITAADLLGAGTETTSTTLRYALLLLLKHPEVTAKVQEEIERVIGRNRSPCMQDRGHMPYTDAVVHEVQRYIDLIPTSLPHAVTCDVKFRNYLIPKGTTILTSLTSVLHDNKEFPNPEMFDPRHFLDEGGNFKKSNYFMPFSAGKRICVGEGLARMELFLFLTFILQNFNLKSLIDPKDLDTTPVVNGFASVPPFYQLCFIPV
CYP2C9, sequence (P11712 whole entry): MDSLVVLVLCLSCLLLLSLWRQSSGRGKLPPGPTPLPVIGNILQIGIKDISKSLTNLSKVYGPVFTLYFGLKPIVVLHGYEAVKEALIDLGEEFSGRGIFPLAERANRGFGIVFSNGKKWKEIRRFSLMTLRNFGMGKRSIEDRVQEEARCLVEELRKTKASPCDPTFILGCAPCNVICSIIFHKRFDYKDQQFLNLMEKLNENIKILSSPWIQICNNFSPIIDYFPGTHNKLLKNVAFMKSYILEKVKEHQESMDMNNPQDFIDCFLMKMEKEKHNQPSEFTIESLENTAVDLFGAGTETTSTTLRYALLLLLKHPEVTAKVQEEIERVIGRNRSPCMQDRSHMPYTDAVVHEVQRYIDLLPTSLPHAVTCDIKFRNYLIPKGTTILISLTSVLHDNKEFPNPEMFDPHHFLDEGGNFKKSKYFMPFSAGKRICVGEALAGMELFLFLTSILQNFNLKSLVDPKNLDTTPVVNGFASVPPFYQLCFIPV

COc1ccc(-c2ccc(Cn3c(CC(C)(C)C(=O)O)c(SC(C)(C)C)c4cc(OCc5ccccn5)ccc43)cc2)cn1 [sodium 3-[5-(pyridin-2-ylmethoxy)-3-(2-methyl-2-propylthio)-1-[4-(2-methoxypyridin-5-yl)benzyl]-indol-2-yl]-2,2-dimethyl-propionate]
IC50 (CYP2C19): 22 µM | IC50 (CYP1A2): > 50 µM | liver weight alteration ([1]; female, CD-1, mouse, 4 days): 9.1% | necropsy findings ([1]; mouse): no gross abnormalities | solubility ([2]; aqueous with cosolvent or surfactant or cyclodextrin, 0.5% Methylcellulose/water): 9.3 mg/mL | solubility ([2]; organic solvent or mixture, Acetonitrile): 0.2 mg/mL | solubility ([2]; organic solvent or mixture, Ethanol): 17.1 mg/mL | solubility ([2]; organic solvent or mixture, Isopropanol): 1.1 mg/mL | solubility ([2]; organic solvent or mixture, Methanol): > 50 mg/mL | solubility ([2]; organic solvent or mixture, Propylene glycol): 13.4 mg/mL | solubility in words ([2]; acetonitrile): sparingly soluble | solubility in words ([2]; isopropanol): sparingly soluble | solubility in words ([2]; methanol): very soluble | LTE4 level at t = 24 hrs. (% of baseline) (urinary LTE4 production; multiple dose, 450 mg daily, Day 1): 8.2 ± 4.3 % of baseline | LTE4 level at t = 24 hrs. (% of baseline) (urinary LTE4 production; multiple dose, 450 mg daily, Day 11): 2.8 ± 0.9 % of baseline | LTE4 level at t = 24 hrs. (% of baseline) (urinary LTE4 production; multiple dose, 1000 mg daily, Day 1): 2.5 ± 0.6 % of baseline | LTE4 level at t = 24 hrs. (% of baseline) (urinary LTE4 production; multiple dose, 1000 mg daily, Day 11): 2.3 ± 0.6 % of baseline | LTE4 level at t = 24 hrs. (% of baseline) (urinary LTE4 production; single dose 50 mg, oral solution): 77 ± 26 % of baseline | LTE4 level at t = 24 hrs. (% of baseline) (urinary LTE4 production; single dose 150 mg, oral solution): 23 ± 10 % of baseline | LTE4 level at t = 24 hrs. (% of baseline) (urinary LTE4 production; single dose 300 mg, oral solution): 10 ± 5 % of baseline | LTE4 level at t = 24 hrs. (% of baseline) (urinary LTE4 production; single dose 600 mg, oral solution): 8 ± 3 % of baseline | LTE4 level at t = 24 hrs. (% of baseline) (urinary LTE4 production; single dose 1000 mg, oral solution): 3 ± 0 % of baseline | IC50 (CYP2C9): ≥ 50 µM | Tmax (in vivo [3]): ≥ 2 h | AUCdose-adjusted (in vivo [4]; iv, 2 mg/kg): 6.0 | AUC(0-inf) (in vivo [4]; female, Beagle, iv, 2 mg/kg): 11900 ng·h/mL | CLp (in vivo [4]; female, Beagle, iv, 2 mg/kg): 2.9 mL/min/kg | Cmax (in vivo [4]; female, Beagle, iv, 2 mg/kg): 3200 ng/mL | Tmax (in vivo [4]; female, Beagle, iv, 2 mg/kg): 0.017 h | Vd (in vivo [4]; female, Beagle, iv, 2 mg/kg): 0.4 L/kg | bioavailability (in vivo [4]; female, Beagle, iv, 2 mg/kg): 100% | half-life (in vivo [4]; female, Beagle, iv, 2 mg/kg): 7.7 h | Tmax (in vivo [4]; female, Beagle, po, 5 mg/kg): 1.7 h | IC50 (CYP3A4): > 50 µM | solubility (pH solubility profile; aqueous medium, aqueous buffer, about pH 7, read-out: aqueous solubility): < 5 µg/mL | solubility (pH solubility profile; basic media, pH 10, aqueous buffer, read-out: solubility in basic media): > 70000 µg/mL
